Source: patent US20210208149A1, “METHODS FOR CELL PROFILING” (priority 2018, published 2021)
Where a name gives a salt, the structure may show the parent alone.

Assays:
U87 [1] = conditions: GBM cell line U87; adapted from reference [13]; cited from earlier work
U118 = conditions: GBM cell line U118; adapted from reference [13]; cited from earlier work
A172 [2] = conditions: GBM cell line A172; adapted from reference [13]; cited from earlier work
LN443 = conditions: GBM cell line LN443; adapted from reference [13]; cited from earlier work
U87 [3] = assay: Cell proliferation assay (CCK8), fixed concentration, reference GBM cell line U87; assay type: cell-based, human; conditions: fixed test concentration per compound, Table 1 log[M]: Trequinsin −4.6, Fucoxanthin −4.8, PF04449613 −4, PF02545920 −4.6, TIC10 −5, PF04691502 −6.6, GSK1059615 −5.5, LY294002 −5, Axitinib −5, Temozolomide −5
Description: (§1) A wide range of approved and exploratory drugs are profiled for their ability to inhibit GBM cell proliferation. Their EC50 values against each separate cell line in the set are determined. […] Screening is performed in 96-well or 384-well or 1536-well formats.
(§2) Data was obtained from testing these compounds at fixed concentrations against normal control cells (HEK293S) alongside reference GBM cells (U87 and A172), to obtain a dataset (Table 1) within which to compare the pharmacological and pharmaceutical properties of compounds across a chosen chemotyping panel.
(§3) Data Obtained from Screening Compounds within a Chemotyping Panel Against a Control Cell Line (HEK293S) and Two Reference GBM Cell Lines (U87 and A172)

A172 [4] = assay: Cell proliferation assay (CCK8), fixed concentration, reference GBM cell line A172; assay type: cell-based, human; conditions: fixed test concentration per compound, Table 1 log[M]: Trequinsin −4.6, Fucoxanthin −4.8, PF04449613 −4, PF02545920 −4.6, TIC10 −5, PF04691502 −6.6, GSK1059615 −5.5, LY294002 −5, Axitinib −5, Temozolomide −5
Description: as §1, §2, §3

HEK293S = assay: Cell proliferation assay (CCK8), fixed concentration, control cell line; assay type: cell-based; conditions: fixed test concentration per compound, Table 1 log[M]: Trequinsin −4.6, Fucoxanthin −4.8, PF04449613 −4, PF02545920 −4.6, TIC10 −5, PF04691502 −6.6, GSK1059615 −5.5, LY294002 −5, Axitinib −5, Temozolomide −5
Description: as §1, §2, §3

Compound	EC50 (U87 [1]) [nM]	EC50 (U118) [nM]	EC50 (A172 [2]) [nM]	EC50 (LN443) [nM]	% Inhibiton U87 (U87 [3]) [%]	% Proliferation U87 (U87 [3]) [%]	% Inhibiton A172 (A172 [4]) [%]	% Proliferation A172 (A172 [4]) [%]	% Inhibiton HEK293 (HEK293S) [%]	% Proliferation HEK293 (HEK293S) [%]
COCc1c(C(C)C)nc(C(C)C)c(/C=C/[C@@H](O)C[C@@H](O)CC(=O)O)c1-c1ccc(F)cc1 [Cericastatin]	668	741	31.7	24						
CC(C)/N=c1\cc2n(-c3ccc(Cl)cc3)c3ccccc3nc-2cc1Nc1ccc(Cl)cc1 [Clofaximine]	8610	19700	11900	20100						
Nc1ncnc2c1ncn2[C@H]1C[C@H](O)[C@@H](CO)O1 [Deoxyadenosine]	2110	590	1770							
COc1cccc2c1C(=O)c1c(O)c3c(c(O)c1C2=O)C[C@@](O)(C(=O)CO)C[C@@H]3O[C@H]1C[C@H](N)[C@H](O)[C@H](C)O1 [Docorubicine]	55.1	41.1	48.8	62.9						
COc1cccc2c1C(=O)c1c(O)c3c(c(O)c1C2=O)C[C@@](O)(C(=O)CO)C[C@@H]3O[C@H]1C[C@H](N)[C@@H](O)[C@H](C)O1 [Epirubicin]	59.3	46.9	62.2	41.2						
O=C1NC(=O)/C(=C/c2ccc3nccc(-c4ccncc4)c3c2)S1 [GSK1059615]					57	43	74	26	79	21
COC(=O)C[C@](O)(CCCC(C)(C)O)C(=O)O[C@@H]1C(OC)=C[C@]23CCCN2CCc2cc4c(cc2[C@H]13)OCO4 [Homoharringtonin]	22	1140		28.9						
CCc1c2c(nc3ccc(OC(=O)N4CCC(N5CCCCC5)CC4)cc13)-c1cc3c(c(=O)n1C2)COC(=O)[C@]3(O)CC [Irinitecan]	8030	4600	7970	4010						
O=c1cc(N2CCOCC2)oc2c(-c3ccccc3)cccc12 [LY294002]					−17	117	42	58	2	98
Cn1cc(-c2ccncc2)c(-c2ccc(OCc3ccc4ccccc4n3)cc2)n1 [PF02545920]					30	70	80	20	84	16
C[C@H](c1nc2c(cnn2C2CCOCC2)c(=O)[nH]1)N1CC(Oc2ccccc2)C1 [PF04449613]					−14	114	61	39	10	90
COc1ccc(-c2cc3c(C)nc(N)nc3n([C@H]3CC[C@H](OCCO)CC3)c2=O)cn1 [PF04691502]					35	65	44	56	45	55
O=C(O)C[C@H](O)C[C@H](O)/C=C/c1c(C2CC2)nc2ccccc2c1-c1ccc(F)cc1 [Pitavastatin]	3520	1920	274	83						
Cc1ccccc1CN1C(=O)C2=C(CCN(Cc3ccccc3)C2)N2CCN=C12 [TIC10]					27	73	68	32	83	17
Cn1nnc2c(C(N)=O)ncn2c1=O [Temozolomide]					5	95	13	87	0	100
CC[C@@]1(O)C(=O)OCc2c1cc1n(c2=O)Cc2cc3c(CN(C)C)c(O)ccc3nc2-1 [Topetecan]	167	184	649	136						
COc1cc2c(cc1OC)-c1c/c(=N\c3c(C)cc(C)cc3C)n(C)c(=O)n1CC2 [Trequinsin]					11	89	37	63	59	41
CC(C)[C@]12O[C@H]1[C@@H]1O[C@]13[C@]1(O[C@H]1C[C@H]1C4=C(CC[C@@]13C)C(=O)OC4)[C@@H]2O [Triptolide]	6.53	10.1	8.33	30.8						
CC[C@]1(O)C[C@H]2CN(CCc3c([nH]c4ccccc34)[C@@](C(=O)OC)(c3cc4c(cc3OC)N(C=O)[C@H]3[C@@](O)(C(=O)OC)[C@H](OC(C)=O)[C@]5(CC)C=CCN6CC[C@]43[C@@H]65)C2)C1 [Vincrinstine]	1320	1190	42	873						
CC[C@]1(O)C[C@@H]2CN(CCc3c([nH]c4ccccc34)[C@@](C(=O)OC)(c3cc4c(cc3OC)N(C)[C@H]3[C@@](O)(C(N)=O)[C@H](O)[C@]5(CC)C=CCN6CC[C@]43[C@@H]65)C2)C1 [Vindesine sulfate]	414	670	23.2	495						
Dactinmycin	437	56.8	99.3	19.6						
Fucoxanthin					26	74	66	34	76	24
